The record followed here is patent EP0312000B1, “Aminomethyl oxooxazolidinyl aroylbenzene derivatives useful as antibacterial agents” (THE DU PONT MERCK PHARMACEUTICAL COMPANY, priority 1987, dated 1989).

For one assay, the system named is Escherichia coli. Kind of assay: In vitro broth microdilution minimal inhibitory concentration (MIC), Mueller-Hinton broth. In kind it is cell-based. Particulars: 24-hour MIC, standard microdilution method, read-out: Minimum Inhibitory Concentration Escherichia coli. An excerpt:
(§1) A standard microdilution method (National Committee for Clinical Standards. Tentative standard M7-T. Standard methods for dilution antimicrobial susceptibility tests for bacteria that grow aerobically. National Committee for Clinical Laboratory Standards, Villanova, PA. 1982) with Mueller-Hinton broth is used to determine the 24-hour minimal inhibitory concentrations (MIC's) for test strains of Staphylococcus aureus and Escherichia coli.
(In broth dilution the organism is exposed to a series of concentrations in liquid medium.)

The subject of assay [1] is Staphylococcus aureus. Described as above. In kind it is cell-based. The conditions noted are these: 24-hour MIC, standard microdilution method, read-out: Minimum Inhibitory Concentration Staphylococcus aureus.
Description: as §1

For assay [2], the system named is Staphylococcus Aureus. Kind of assay: In vivo activity in an acute lethal mouse infection model. Particulars: 168 h, mice infected intraperitoneally with S. aureus, dosed at one hour and four hours post-infection, survivors on seventh day. On the procedure: The in vivo potency of these compounds is exemplified by the data summarized in Table V. Determinations of in vivo efficacy are performed by inoculating mice intraperitoneally with cultures of the infecting organism diluted to produce 100% mortality in control animals within twenty-four hours. The culture of S. aureus used to infect the animals was diluted to the required bacterial density using 5% aqueous hog gastric mucin. The compounds are dissolved or suspended in 0.25% aqueous Methocel® (Methocel®: Hydroxypropyl Methylcellulose, E15 Premium, Dow Chemical Company) for oral administration or sterile distilled water containing 5% dimethylsulfoxide (Fisher Scientific Company, Fairlawn, NJ) for subcutaneous administration. The mice are dosed at one hour and at four hours post-infection. Mortality is recorded daily until test termination seven days post infection. The number of survivors in each treatment group on the seventh day after infection is used in the calculation of the ED₅₀, the dose of compound that protects 50% of the mice (Litchfield, J. T. and Wildoxon. A simplified method for evaluating dose-effect experiments. J. Pharmacol Exp. Ther., 96:99-113, 1949).

Where [3] appears, read: oral in 0.25% aqueous Methocel, read-out: ED₅₀ Oral Administration.
The mark [4] stands for this setting: sc, subcutaneous in sterile distilled water containing 5% dimethylsulfoxide, read-out: ED₅₀ Subcutaneous Administration.

Values after ≈ are worked out from the molar mass of the structure shown. Read-outs that look alike come from different tables or passages of the source.

Consider `CC(=O)NC[C@H]1CN(c2ccc(C(=O)c3cccc(F)c3)cc2)C(=O)O1` [Example 5], for which the MIC was more than 128 µg/mL in the assay on Escherichia coli and 8 µg/mL (≈ 22.4 µM) in the assay on Staphylococcus aureus [1]. For the same compound, the results for the ED50 in the assay on Staphylococcus Aureus [2] (setting [3]) and with Staphylococcus Aureus [2] (setting [4]) were 42 mg/kg and 25 mg/kg, respectively.

In the case of `CC(=O)NC[C@H]1CN(c2ccc(C(O)c3ccccc3)cc2)C(=O)O1` (stereo partly drawn) [Example 20], the MIC was more than 128 µg/mL with Escherichia coli and 32 µg/mL (≈ 94 µM) in the assay on Staphylococcus aureus [1]. Also, the ED50 was found to be 65 mg/kg in the assay with Staphylococcus Aureus [2] (setting [3]) and 52 mg/kg with Staphylococcus Aureus [2] (setting [4]).

Turning to `CC(=O)NC[C@H]1CN(c2ccc(C(=O)c3ccc(F)cc3)cc2)C(=O)O1` [Example 1, (ℓ)-N-[3-[4-(4-fluorobenzoyl)-phenyl]-2-oxooxazolidin-5-ylmethyl]acetamide], the MIC in the assay with Escherichia coli was more than 128 µg/mL; with Staphylococcus aureus [1], 4 µg/mL (≈ 11.2 µM). The values for the ED50 with Staphylococcus Aureus [2] (setting [3]) and in the assay with Staphylococcus Aureus [2] (setting [4]) were 40 mg/kg and 20 mg/kg, respectively.

Take `CC(=O)NC[C@H]1CN(c2ccc(C(=O)c3ccc(S(C)(=O)=O)cc3)cc2)C(=O)O1` [Example 11]: the MIC in the assay on Escherichia coli was more than 128 µg/mL; with Staphylococcus aureus [1], 4 µg/mL (≈ 9.6 µM). For the same compound, the ED50 with Staphylococcus Aureus [2] (setting [3]) and in the assay on Staphylococcus Aureus [2] (setting [4]) was more than 90 mg/kg throughout.

On to `CC(=O)NC[C@H]1CN(c2ccc(C(=O)c3cccnc3)cc2)C(=O)O1` [Example 15], for which the MIC with Escherichia coli is more than 128 µg/mL; in the assay on Staphylococcus aureus [1], 8 µg/mL (≈ 23.6 µM). Also, the ED50 with Staphylococcus Aureus [2] (setting [3]) was more than 90 mg/kg; in the assay with Staphylococcus Aureus [2] (setting [4]) it was 59 mg/kg.

On to `COc1ccc(C(=O)c2ccc(N3C[C@H](CNC(C)=O)OC3=O)cc2)cc1` [Example 3], for which the results for the MIC in the assay with Escherichia coli and in the assay on Staphylococcus aureus [1] were more than 128 µg/mL and 4 µg/mL (≈ 10.9 µM), respectively. For the same compound, the results for the ED50 with Staphylococcus Aureus [2] (setting [3]) and in the assay on Staphylococcus Aureus [2] (setting [4]) were 41 mg/kg and 15 mg/kg, respectively.

`CC(=O)NC[C@H]1CN(c2ccc(C(=O)c3ccc([N+](=O)[O-])cc3)cc2)C(=O)O1` [Example 9, (ℓ)-N-[3-[4-(4-nitrobenzoyl)phenyl]-2-oxooxazolidin-5-ylmethyl]acetamide]: the MIC was more than 128 µg/mL with Escherichia coli and 1 µg/mL (≈ 2.61 µM) in the assay with Staphylococcus aureus [1]. Moreover, the ED50 in the assay with Staphylococcus Aureus [2] (setting [3]) and in the assay with Staphylococcus Aureus [2] (setting [4]) was more than 90 mg/kg each time.

As to `CC(=O)NC[C@H]1CN(c2ccc(C(=O)c3ccccc3)cc2)C(=O)O1` [Example 2], the figures for the MIC in the assay with Escherichia coli and in the assay on Staphylococcus aureus [1] were more than 128 µg/mL and 4 µg/mL (≈ 11.8 µM), respectively. For the same compound, the ED50 in the assay on Staphylococcus Aureus [2] (setting [3]) was found to be 47 mg/kg; in the assay with Staphylococcus Aureus [2] (setting [4]), 60 mg/kg.

On to `CC(=O)NC[C@H]1CN(c2ccc(C(=O)c3ccc(F)cc3F)cc2)C(=O)O1` [Example 6, (ℓ)-N-[3-[4-(2,4-difluorobenzoyl)phenyl]-2-oxooxazolidin-5-ylmethyl]acetamide], for which the MIC with Escherichia coli is more than 128 µg/mL; in the assay on Staphylococcus aureus [1], 1 µg/mL (≈ 2.67 µM). For the same compound, the ED50 is 30 mg/kg in the assay on Staphylococcus Aureus [2] (setting [3]) and 26 mg/kg with Staphylococcus Aureus [2] (setting [4]).

On to `CC(=O)NC[C@H]1CN(c2ccc(C(=O)c3ccc([S+](C)[O-])cc3)cc2)C(=O)O1` (stereo partly drawn) [Example 10], for which the MIC is more than 128 µg/mL in the assay on Escherichia coli and 16 µg/mL (≈ 40 µM) in the assay on Staphylococcus aureus [1]. The ED50 with Staphylococcus Aureus [2] (setting [3]) and with Staphylococcus Aureus [2] (setting [4]) was more than 90 mg/kg in each case.

Take `CSc1ccc(C(=O)c2ccc(N3C[C@H](CNC(C)=O)OC3=O)cc2)cc1` [Example 8]: the MIC is more than 128 µg/mL in the assay with Escherichia coli and 4 µg/mL (≈ 10.4 µM) in the assay with Staphylococcus aureus [1]. Moreover, the ED50 in the assay with Staphylococcus Aureus [2] (setting [3]) and in the assay on Staphylococcus Aureus [2] (setting [4]) was more than 90 mg/kg throughout.

`COc1cc(Cl)ccc1C(=O)c1ccc(N2C[C@H](CNC(C)=O)OC2=O)cc1` [Example 7]: the figures for the MIC with Escherichia coli and with Staphylococcus aureus [1] were more than 128 µg/mL and 32 µg/mL (≈ 79.4 µM), respectively. For the same compound, the ED50 with Staphylococcus Aureus [2] (setting [3]) and in the assay with Staphylococcus Aureus [2] (setting [4]) was more than 120 mg/kg throughout.
